What follows are molecules tested on histone deacetylase in nuclear extracts from H446 cells (pooled HDACs) (assay: Inhibition of histone deacetylase in H446 nuclear extracts ([3H]-acetylated histone substrate)). Conditions: not given.
Format: biochemical, human
Molecule `O=C(NO)c1ccc(CCSc2ccccc2)cc1` [Compound 70, N-Hydroxy-4-(2-thiophenyl)-ethyl benzamide] has an IC50 of 5500 nM.
`O=C(NO)c1ccc(CCS(=O)(=O)c2ccccc2)cc1` [Compound 73, N-Hydroxy-4-(2-benzenesulfonyl)-ethyl benzamide] was tested, and the “pooled HDACs percent inhibition” value was 35% @ 20 μM.

Same assay, conditions: H446 nuclear extract
With `O=C(Cc1ccc(NS(=O)(=O)c2cc3ccccc3s2)cc1)NO` [Compound 4] the IC50 was 7000 nM.
`O=C(Cc1ccc(NS(=O)(=O)c2ccccc2[N+](=O)[O-])cc1)NO` [Compound 7, 2-[4-(2-nitrobenzenesulfonylamino)-phenyl]-N-hydroxy-acetamide] gave an IC50 of 70000 nM.
`O=C(Cc1ccc(NS(=O)(=O)c2cc(Cl)ccc2Cl)cc1)NO` [Compound 8, 2-[4-(2,5-dichlorobenzenesulfonylamino)-phenyl]-N-hydroxy-acetamide] was tested, and the IC50 was 15000 nM.
Work on `Cc1ccc(S(=O)(=O)Nc2ccc(CC(=O)NO)cc2)cc1` [Compound 9, 2-[4-(4-methylbenzenesulfonylamino)-phenyl]-N-hydroxy-acetamide] yielded an IC50 of 9000 nM.
`O=C(Cc1ccc(NS(=O)(=O)c2cccc(C(F)(F)F)c2)cc1)NO` [Compound 10, 2-[4-(3-trifluoromethylbenzenesulfonylamino)-phenyl]-N-hydroxy acetamide] was tested, and the IC50 was 30000 nM.
For `O=C(NO)c1ccc(NS(=O)(=O)c2cc3ccccc3s2)cc1` [Compound 13], the IC50 was 900 nM.
Molecule `O=C(Cc1ccc(NS(=O)(=O)c2ccc(Cl)c(Cl)c2)cc1)NO` [Compound 15, 2-[4-(3,4-dichlorobenzenesulfonylamino)-phenyl]-N-hydroxy-acetamide] has an IC50 of 25000 nM.
Work on `O=C(Cc1ccc(NS(=O)(=O)c2cccc3cccnc23)cc1)NO` [Compound 18, 2-[4-(8-quinolinesulfonylamino)-phenyl]-N-hydroxy-acetamide] yielded an IC50 of 160000 nM.
In the case of `O=C(Cc1ccc(NS(=O)(=O)c2ccc(Br)cc2)cc1)NO` [Compound 19, 2-[4-(4-bromobenzenesulfonylamino)-phenyl]-N-hydroxy-acetamide], the IC50 is reported as 20000 nM.
With `O=C(CCCCc1cccc(NS(=O)(=O)c2ccccc2)c1)NO` [Compound 26] the IC50 was < 20000 nM.
For `O=C(/C=C/C#Cc1ccc(NS(=O)(=O)c2ccccc2)cc1)NO` [Compound 32, N-Hydroxy-5-[4-(benzenesulfonylamino)-phenyl]-4-yn-2-pentanamide], the IC50 was < 20000 nM.
Work on `O=C(CCCCc1ccc(NS(=O)(=O)c2ccccc2)cc1)NO` [Compound 34] yielded an IC50 of 2000 nM.
In the case of `O=C(CCc1ccc(NS(=O)(=O)c2ccccc2)cc1)NO` [Compound 38, N-Hydroxy-3-[4-(benzenesulfonylamino)-phenyl]-2-propanamide], the IC50 is reported as 750 nM.
Work on `O=C(/C=C/c1ccc(C(=O)NO)cc1)c1ccccc1` [Compound 45, N-Hydroxy-4-(3-oxo-3-phenylpropenyl)-benzamide] yielded an IC50 of 4000 nM.
In the case of `O=C(CCc1ccc(C(=O)NO)cc1)c1ccccc1` [Compound 50, N-Hydroxy-4-(3-oxo-3-phenylpropyl)-benzamide], the IC50 is reported as 5000 nM.
For `O=C(CC(O)c1ccc(C(=O)NO)cc1)c1ccccc1` (centres unmarked) [Compound 53, N-Hydroxy-4-(3-oxo-3-phenyl-1-hydroxypropyl)-benzamide], the IC50 was 25000 nM.
Molecule `O=C(NO)c1ccc(CCCc2ccccc2)cc1` [Compound 56, N-Hydroxy-4-(3-phenylpropyl)-benzamide] has an IC50 of 15000 nM.
`O=C(NO)c1ccc(CCCCc2ccccc2)cc1` [Compound 61, N-Hydroxy-4-(4-phenylbutyl)-benzamide] showed an IC50 of 4000 nM.
For `CC(C)C(Cc1ccc(NS(=O)(=O)c2ccccc2)cc1)C(=O)NO` (centres unmarked) [Compound 81], the IC50 was > 50000 nM.
`O=C(/C=C/c1ccc(NS(=O)(=O)c2cccs2)cc1)NO` [Compound 87] showed an IC50 of 3000 nM.
In the case of `O=C(/C=C/c1ccc(NS(=O)(=O)c2cccc3ccccc23)cc1)NO` [Compound 93], the IC50 is reported as 350 nM.
For `O=C(/C=C/c1ccc(NS(=O)(=O)c2ccc3ccccc3c2)cc1)NO` [Compound 94], the IC50 was 400 nM.
For `O=C(/C=C/c1ccc(NS(=O)(=O)c2cc3ccccc3s2)cc1)NO` [Compound 95], the IC50 was 800 nM.
For `CN(C)c1cccc2c(S(=O)(=O)Nc3ccc(/C=C/C(=O)NO)cc3)cccc12` [Compound 97], the IC50 was 800 nM.
Molecule `O=C(/C=C/c1ccc(NS(=O)(=O)c2cccc3cccnc23)cc1)NO` [Compound 99] has an IC50 of 900 nM.
`O=C(/C=C/c1ccc(NS(=O)(=O)Cc2ccccc2)cc1)NO` [Compound 100] gave an IC50 of 800 nM.
With `O=C(/C=C/c1ccc(NS(=O)(=O)c2ccc3oc4ccccc4c3c2)cc1)NO` [Compound 101] the IC50 was 300 nM.
For `O=C(/C=C/c1ccc(NS(=O)(=O)c2ccc(-c3cccs3)s2)cc1)NO` [Compound 103], the IC50 was 700 nM.
`O=C(/C=C/c1ccc(NS(=O)(=O)c2ccc(Cl)cc2Cl)cc1)NO` [Compound 106] gave an IC50 of 800 nM.
Molecule `O=C(/C=C/c1ccc(CC(O)c2ccccc2)o1)NO` (centres unmarked) [Compound 136] has an IC50 of 9000 nM.
Work on `O=C(/C=C/c1ccc(NC(=O)Nc2ccc(Cl)cc2)cc1)NO` [Compound 145] yielded an IC50 of 3800 nM.
Work on `O=C(/C=C/c1ccc(NC(=O)Nc2cccc3ccccc23)cc1)NO` [Compound 146] yielded an IC50 of 2900 nM.
In the case of `COc1ccc(NC(=O)Nc2ccc(/C=C/C(=O)NO)cc2)cc1OC` [Compound 147], the IC50 is reported as 1900 nM.
`O=C(NO)c1ccc(CCCS(=O)(=O)c2ccccc2)cc1` [Compound 148] was tested, and the IC50 was 5000 nM.
With `O=C(NO)c1ccc(CCc2ccccc2)cc1` [Compound 150] the IC50 was 10000 nM.
For `O=C(NO)c1ccc(/C=C/c2ccccc2)cc1` [Compound 151], the IC50 was 7500 nM.
In the case of `O=C(NO)c1ccc(CCCCCc2ccccc2)cc1` [Compound 153], the IC50 is reported as 5000 nM.
`O=C(CCCc1ccc(CCCCc2ccccc2)cc1)NO` [Compound 156] showed an IC50 of 5000 nM.
With `O=C(CCc1ccc(CCc2ccccc2)cc1)NO` [Compound 157] the IC50 was 6000 nM.
`O=C(Cc1ccc(CCCS(=O)(=O)c2ccccc2)cc1)NO` [Compound 158] was tested, and the IC50 was > 20000 nM.
Work on `CN(C)c1ccc(CCc2ccc(C(=O)NO)s2)cc1` [Compound 171] yielded an IC50 of 20000 nM.
With `CN(C)c1ccc(CCc2ccc(C(=O)NO)cc2)cc1` [Compound 172] the IC50 was 10000 nM.
`O=C(Cc1ccc(CCCCc2ccccc2)cc1)NO` [Compound 174, N-hydroxy-2-(4-(4-phenylbutyl)phenyl)acetamide] was tested, and the IC50 was > 20000 nM.
`O=C(Cc1ccc(CCCc2ccccc2)cc1)NO` [Compound 175] was tested, and the IC50 was > 2000 nM.

Same assay, conditions: H446 nuclear extract; @ 1 μM
With `Cc1ccc(S(=O)(=O)Nc2ccc(/C=C/C(=O)NO)cc2)cc1` [Compound 108] the “pooled HDACs percent inhibition” value was 10% @ 1 μM.

Same assay, conditions: H446 nuclear extract; @ 5 μM
In the case of `O=C(/C=C/c1ccc(NS(=O)(=O)c2ccccn2)cc1)NO` [Compound 96], the “pooled HDACs percent inhibition” value is reported as 33% @ 5 μM.
In the case of `O=C(/C=C/c1ccc(NS(=O)(=O)c2cccnc2)cc1)NO` [Compound 104], the “pooled HDACs percent inhibition” value is reported as 21% @ 5 μM.

Same assay, conditions: H446 nuclear extract; @ 20 μM
`O=C(NO)c1cccc(CCc2ccccc2)c1` [Compound 68, N-Hydroxy-3-(2-phenylethyl)-benzamide] was tested, and the “pooled HDACs percent inhibition” value was 3% @ 20 μM.
`O=C(NO)c1ccc(CC[S+]([O-])c2ccccc2)cc1` (centres unmarked) [Compound 71, N-Hydroxy-4-(2-benzenesulfoxide)-ethyl benzamide] was tested, and the “pooled HDACs percent inhibition” value was 44% @ 20 μM.
With `Nc1ccccc1NC(=O)/C=C/c1ccc(CC(=O)c2ccccc2)o1` [Compound 139] the “pooled HDACs percent inhibition” value was 44% @ 20 μM.
`O=C(CCc1ccc(CC(=O)c2ccccc2)o1)NO` [Compound 143] was tested, and the “pooled HDACs percent inhibition” value was 55% @ 20 μM.
With `Nc1ccccc1NC(=O)CCc1ccc(CC(=O)c2ccccc2)o1` [Compound 144] the “pooled HDACs percent inhibition” value was 6% @ 20 μM.
In the case of `O=C(NO)c1ccc(CCCC(O)c2ccc3ccccc3c2)cc1` (centres unmarked) [Compound 149], the “pooled HDACs percent inhibition” value is reported as 8% @ 20 μM.
With `O=C(CCCc1ccc(CCCc2ccccc2)cc1)NO` [Compound 155] the “pooled HDACs percent inhibition” value was 39% @ 20 μM.
`Nc1ccccc1NC(=O)/C=C/C#Cc1cccc(NS(=O)(=O)c2ccccc2)c1` [Compound 168] was tested, and the “pooled HDACs percent inhibition” value was 0% @ 20 μM.
`CN(C)c1ccc(CCc2ccccc2C(=O)NO)cc1` [Compound 173] was tested, and the “pooled HDACs percent inhibition” value was 35% @ 20 μM.
`O=C(CCC1CCC(CC(=O)c2ccccc2)O1)NO` (centres unmarked) [Compound 176] was tested, and the “pooled HDACs percent inhibition” value was 20% @ 20 μM.
`O=C(CCCc1ccc(C(=O)NO)cc1)c1ccccc1` [Compound 177] was tested, and the “pooled HDACs percent inhibition” value was 10% @ 20 μM.

Same assay, conditions: H446 nuclear extract; @ 100 μM
In the case of `O=C(Cc1cccc(NS(=O)(=O)c2cc3ccccc3s2)c1)NO` [Compound 14], the “pooled HDACs percent inhibition” value is reported as 36% @ 100 μM.
For `O=C(Cc1ccc(NS(=O)(=O)c2cccs2)cc1)NO` [Compound 16, 2-[4-(2-Thiophenesulfonylamino)-phenyl]-N-hydroxy-acetamide], the “pooled HDACs percent inhibition” value was 38% 100 μM.
For `O=C(Cc1ccc(NS(=O)(=O)c2cccc([N+](=O)[O-])c2)cc1)NO` [Compound 17, 2-[4-(3-nitrobenzenesulfonylamino)-phenyl]-N-hydroxy-acetamide], the “pooled HDACs percent inhibition” value was 47% 100 μM.
In the case of `O=C(NO)c1cccc(CCCc2ccccc2)c1` [Compound 64, N-Hydroxy-3-(3-phenylpropyl)-benzamide], the “pooled HDACs percent inhibition” value is reported as 12% @ 100 μM.

The molecules below were run against recombinant human HDAC-1 enzyme (rHDAC-1) (Homo sapiens (Human), UniProt Q13547) (assay: Inhibition of recombinant human HDAC-1 ([3H]-acetylated histone substrate)). Conditions: not given.
recombinant human HDAC-1 enzyme (rHDAC-1), sequence (Q13547 whole entry): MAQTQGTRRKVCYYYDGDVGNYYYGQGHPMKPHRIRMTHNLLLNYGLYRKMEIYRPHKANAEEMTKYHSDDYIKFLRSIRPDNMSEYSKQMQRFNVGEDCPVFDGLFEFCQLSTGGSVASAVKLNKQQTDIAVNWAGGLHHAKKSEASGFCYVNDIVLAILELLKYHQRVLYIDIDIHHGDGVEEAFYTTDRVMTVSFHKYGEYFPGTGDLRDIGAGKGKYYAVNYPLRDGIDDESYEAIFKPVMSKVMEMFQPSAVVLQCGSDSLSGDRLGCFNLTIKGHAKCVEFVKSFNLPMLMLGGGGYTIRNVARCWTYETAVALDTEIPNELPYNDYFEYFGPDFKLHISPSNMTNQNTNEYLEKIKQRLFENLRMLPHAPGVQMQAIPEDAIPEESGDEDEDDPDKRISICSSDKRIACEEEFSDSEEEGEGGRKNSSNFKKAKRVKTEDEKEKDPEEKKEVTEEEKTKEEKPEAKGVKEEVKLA
Format: biochemical
`O=C(NO)c1ccc(CCSc2ccccc2)cc1` [Compound 70, N-Hydroxy-4-(2-thiophenyl)-ethyl benzamide] was tested, and the IC50 was 900 nM.

Same assay, conditions: Table 4, recombinant human HDAC-1
In the case of `O=C(CCCCc1ccc(NS(=O)(=O)c2ccccc2)cc1)NO` [Compound 34], the IC50 is reported as 300 nM.
`O=C(CCc1ccc(NS(=O)(=O)c2ccccc2)cc1)NO` [Compound 38, N-Hydroxy-3-[4-(benzenesulfonylamino)-phenyl]-2-propanamide] showed an IC50 of 100 nM.
`O=C(CCc1ccc(CCCc2ccccc2)cc1)NO` [Compound 77, N-Hydroxy-3-[4-(3-phenylpropyl)-phenyl]-propanamide] was tested, and the IC50 was 650 nM.
`CC(C)C(Cc1ccc(NS(=O)(=O)c2ccccc2)cc1)C(=O)NO` (centres unmarked) [Compound 81] was tested, and the IC50 was > 25000 nM.
Work on `O=C(/C=C/c1ccc(NS(=O)(=O)c2cccs2)cc1)NO` [Compound 87] yielded an IC50 of 600 nM.
For `O=C(/C=C/c1ccc(NS(=O)(=O)c2ccc3ccccc3c2)cc1)NO` [Compound 94], the IC50 was 30 nM.
Work on `O=C(/C=C/c1ccc(NS(=O)(=O)c2cc3ccccc3s2)cc1)NO` [Compound 95] yielded an IC50 of 200 nM.
In the case of `CN(C)c1cccc2c(S(=O)(=O)Nc3ccc(/C=C/C(=O)NO)cc3)cccc12` [Compound 97], the IC50 is reported as 280 nM.
`COc1ccc(NS(=O)(=O)c2ccc(/C=C/C(=O)NO)cc2)cc1OC` [Compound 98] showed an IC50 of 60 nM.
`O=C(/C=C/c1ccc(NS(=O)(=O)Cc2ccccc2)cc1)NO` [Compound 100] was tested, and the IC50 was 750 nM.
For `O=C(/C=C/c1ccc(NS(=O)(=O)c2ccc3oc4ccccc4c3c2)cc1)NO` [Compound 101], the IC50 was 40 nM.
`O=C(/C=C/c1ccc(NS(=O)(=O)c2ccc(-c3cccs3)s2)cc1)NO` [Compound 103] gave an IC50 of 50 nM.
`O=C(/C=C/c1ccc(NS(=O)(=O)c2ccc(Cl)cc2Cl)cc1)NO` [Compound 106] gave an IC50 of 300 nM.
Work on `Cc1ccc(S(=O)(=O)Nc2ccc(/C=C/C(=O)NO)cc2)cc1` [Compound 108] yielded an IC50 of 300 nM.
For `COc1ccc(S(=O)(=O)Nc2ccc(/C=C/C(=O)Nc3ccccc3N)cc2)cc1OC` [Compound 116], the IC50 was 4000 nM.
Work on `Nc1ccccc1NC(=O)/C=C/c1ccc(NS(=O)(=O)c2ccc(-c3ccccc3)cc2)cc1` [Compound 123] yielded an IC50 of 1000 nM.
Work on `Nc1ccccc1NC(=O)C#Cc1ccc(NS(=O)(=O)c2ccc(-c3ccccc3)cc2)cc1` [Compound 129] yielded an IC50 of 3000 nM.
Work on `O=C(/C=C/c1ccc(S(=O)(=O)Nc2ccc(-c3ccccc3)cc2)cc1)NO` [Compound 162] yielded an IC50 of 40 nM.
